Results as given in PubChem BioAssay AID256 (DTP/NCI, 2004).
Several values for one entry are separate records, joined by “and”; a condition that tells them apart may be missing. Identical values can stand only once. Toxic doses and inconclusive results are not listed.

System: CD2F1 mice, L1210 leukemia ip, survival T/C
Test: NCI In Vivo Anticancer Drug Screen. Data for tumor model L1210 Leukemia (intraperitoneal) in CD2F1 (CDF1) mice
Conditions: higher = longer survival
Procedure, shortened: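 Transplantable tumor in mice; compound-treated vs vehicle-treated groups. Read-out = treated/control ratio of the measured endpoint.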

[1] = endpoint: mean survival time, dose: 100.0 mg/kg/injection, schedule: Q01DX009 (ip), vehicle: saline with Tween-80
[2] = endpoint: mean survival time, dose: 200.0 mg/kg/injection, schedule: Q01DX009 (ip), vehicle: saline with Tween-80
[3] = endpoint: mean survival time, dose: 400.0 mg/kg/injection, schedule: Q01DX009 (ip), vehicle: saline with Tween-80
[4] = endpoint: mean survival time, dose: 100.0 mg/kg/injection, schedule: Q04DX003 (ip), vehicle: saline with Tween-80
[5] = endpoint: mean survival time, dose: 200.0 mg/kg/injection, schedule: Q04DX003 (ip), vehicle: saline with Tween-80
[6] = endpoint: mean survival time, dose: 400.0 mg/kg/injection, schedule: Q04DX003 (ip), vehicle: saline with Tween-80
[7] = endpoint: mean survival time, dose: 100.0 mg/kg/injection, schedule: Q01DX001 (ip), vehicle: saline with Tween-80
[8] = endpoint: mean survival time, dose: 200.0 mg/kg/injection, schedule: Q01DX001 (ip), vehicle: saline with Tween-80
[9] = endpoint: mean survival time, dose: 400.0 mg/kg/injection, schedule: Q01DX001 (ip), vehicle: saline with Tween-80
[10] = endpoint: mean survival time, dose: 100.0 mg/kg/injection, schedule: Q04DX003 (ip), vehicle: saline
[11] = endpoint: mean survival time, dose: 200.0 mg/kg/injection, schedule: Q04DX003 (ip), vehicle: saline
[12] = endpoint: mean survival time, dose: 100.0 mg/kg/injection, schedule: Q01DX001 (ip), vehicle: saline
[13] = endpoint: mean survival time, dose: 200.0 mg/kg/injection, schedule: Q01DX001 (ip), vehicle: saline

Cc1ccc([N+](=O)[O-])cc1NC(=O)NNC(=O)CNC(=O)Nc1cccc([N+](=O)[O-])c1
T/C [1]: 88 % of control
T/C [2]: 86 % of control
T/C [3]: 104 % of control

COC1OC(COC(=O)c2ccccc2)C(OC(=O)c2ccccc2)C(OC(=O)c2ccccc2)C1OC(=O)c1ccccc1 (stereo unspecified)
T/C [4]: 95 % of control
T/C [5]: 91 % of control
T/C [6]: 87 % of control

NC(=O)c1c2ccccc2nn1C1OC(CO)C(O)C1O (stereo unspecified)
T/C (endpoint: mean survival time, dose: 100.0 mg/kg/injection, schedule: Q01DX005 (ip), vehicle: saline): 96 % of control
T/C (endpoint: mean survival time, dose: 200.0 mg/kg/injection, schedule: Q01DX005 (ip), vehicle: saline): 102 % of control

Nc1ccc(N(S(=O)(=O)c2ccccc2)S(=O)(=O)c2ccccc2)c(Cl)c1
T/C [7]: 96 % of control
T/C [8]: 98 % of control
T/C [9]: 96 % of control

CC(=O)OCC1OC(n2nc(-c3ccccc3)c(=O)n(-c3ccccc3)c2=O)C(OC(C)=O)C(OC(C)=O)C1OC(C)=O (stereo unspecified)
T/C (endpoint: mean survival time, dose: 3.8 mg/kg/injection, schedule: Q01DX005 (ip), vehicle: water): 96 % of control
T/C (endpoint: mean survival time, dose: 7.5 mg/kg/injection, schedule: Q01DX005 (ip), vehicle: water): 96 % of control
T/C (endpoint: mean survival time, dose: 15.0 mg/kg/injection, schedule: Q01DX005 (ip), vehicle: water): 96 % of control
T/C (endpoint: mean survival time, dose: 30.0 mg/kg/injection, schedule: Q01DX005 (ip), vehicle: water): 101 % of control
T/C (endpoint: mean survival time, dose: 60.0 mg/kg/injection, schedule: Q01DX005 (ip), vehicle: water): 101 % of control

Cc1cc(C)c(C)cc1C
T/C [1]: 92 % of control
T/C [4]: 96 % of control
T/C [2]: 96 % of control
T/C [5]: 100 % of control
T/C [3]: 88 % of control
T/C [6]: 94 % of control

CCSC(SCC)[C@H](NC(C)=O)[C@@H](O)[C@H](O)[C@H](O)CO
T/C [10]: 101 % of control
T/C [11]: 98 % of control
T/C (endpoint: mean survival time, dose: 400.0 mg/kg/injection, schedule: Q04DX003 (ip), vehicle: saline): 95 % of control

S=c1nccc[nH]1.[Pd]
T/C (endpoint: mean survival time, dose: 3.13 mg/kg/injection, schedule: Q04DX003 (ip), vehicle: distilled water + Tween-80): 97 % of control
T/C (endpoint: mean survival time, dose: 6.25 mg/kg/injection, schedule: Q04DX003 (ip), vehicle: distilled water + Tween-80): 94 % of control
T/C (endpoint: mean survival time, dose: 12.5 mg/kg/injection, schedule: Q04DX003 (ip), vehicle: distilled water + Tween-80): 89 % of control
T/C (endpoint: mean survival time, dose: 25.0 mg/kg/injection, schedule: Q04DX003 (ip), vehicle: distilled water + Tween-80): 89 % of control
T/C (endpoint: mean survival time, dose: 50.0 mg/kg/injection, schedule: Q04DX003 (ip), vehicle: distilled water + Tween-80): 89 % of control

CCCCCCCCCCCCCCCC(=O)NCCNC(=O)CCCCCCCCCCCCCCC
T/C (endpoint: mean survival time, dose: 50.0 mg/kg/injection, schedule: Q01DX009 (ip), vehicle: saline with Tween-80): 92 % of control
T/C (endpoint: mean survival time, dose: 75.0 mg/kg/injection, schedule: Q01DX001 (ip), vehicle: saline): 98 % of control
T/C [1]: 90 % of control
T/C (endpoint: mean survival time, dose: 150.0 mg/kg/injection, schedule: Q01DX001 (ip), vehicle: saline): 93 % of control
T/C [2]: 94 % of control
T/C (endpoint: mean survival time, dose: 300.0 mg/kg/injection, schedule: Q01DX001 (ip), vehicle: saline): 98 % of control

CCOC(=O)NC1=C(N2CC2)C(=O)C(NC(=O)OCC)=C(N2CC2)C1=O
T/C (endpoint: mean survival time, dose: 1.25 mg/kg/injection, schedule: Q01DX009 (oral), vehicle: other): 87 % of control
T/C (endpoint: mean survival time, dose: 1.25 mg/kg/injection, schedule: Q01DX009 (oral), vehicle: saline): 98 % of control
T/C (endpoint: mean survival time, dose: 2.5 mg/kg/injection, schedule: Q01DX009 (oral), vehicle: other): 97 % of control
T/C (endpoint: mean survival time, dose: 2.5 mg/kg/injection, schedule: Q01DX009 (oral), vehicle: saline): 94 % of control
T/C (endpoint: mean survival time, dose: 4.0 mg/kg/injection, schedule: Q01DX009 (sc), vehicle: other): 93 % of control
T/C (endpoint: mean survival time, dose: 10.0 mg/kg/injection, schedule: Q01DX009 (oral), vehicle: other): 95 % of control
T/C (endpoint: mean survival time, dose: 16.0 mg/kg/injection, schedule: Q04DX003 (ip), vehicle: other): 90 % of control
T/C (endpoint: mean survival time, dose: 20.0 mg/kg/injection, schedule: Q01DX009 (oral), vehicle: other): 87 % of control
T/C (endpoint: median survival time, dose: 0.25 mg/kg/injection, schedule: Q01DX009 (ip), vehicle: saline with Tween-80): 97 % of control
T/C (endpoint: median survival time, dose: 0.5 mg/kg/injection, schedule: Q01DX009 (ip), vehicle: saline with Tween-80): 110 % of control
T/C (endpoint: median survival time, dose: 1.0 mg/kg/injection, schedule: Q08DX002 (ip), vehicle: saline with Tween-80): 110 % of control
T/C (endpoint: median survival time, dose: 4.0 mg/kg/injection, schedule: Q01DX009 (ip), vehicle: saline with Tween-80): 90 % of control

CNS(=O)(=O)c1ccc2c(c1)[nH]c(=S)n2C
T/C [1]: 97 % of control
T/C [4]: 96 % of control
T/C [2]: 93 % of control
T/C [5]: 92 % of control
T/C [3]: 93 % of control
T/C [6]: 90 % of control

COC(=O)/C(=C\c1ccccc1Cl)C(C)=O
T/C [4]: 104 % of control
T/C [5]: 98 % of control
T/C [6]: 102 % of control

[N-]=[N+]=NC1=C(c2ccccc2)C(=O)C=C(c2ccccc2)C1=O
T/C (endpoint: mean survival time, dose: 25.0 mg/kg/injection, schedule: Q04DX003 (ip), vehicle: saline with Tween-80): 94 % of control
T/C (endpoint: mean survival time, dose: 50.0 mg/kg/injection, schedule: Q04DX003 (ip), vehicle: saline with Tween-80): 94 % of control
T/C [4]: 101 % of control and 102 % of control
T/C [6]: 101 % of control

CN1C(/C(C(=O)C(F)(F)F)=C(\O)C(F)(F)F)=NCc2ccccc21
T/C (endpoint: mean survival time, dose: 100.0 mg/kg/injection, schedule: Q04DX003 (ip), vehicle: Klucel (hydroxypropylcellulose) (HPC)): 102 % of control
T/C (endpoint: mean survival time, dose: 200.0 mg/kg/injection, schedule: Q04DX003 (ip), vehicle: Klucel (hydroxypropylcellulose) (HPC)): 98 % of control
T/C (endpoint: mean survival time, dose: 400.0 mg/kg/injection, schedule: Q04DX003 (ip), vehicle: Klucel (hydroxypropylcellulose) (HPC)): 98 % of control

O=S(=O)(O)c1cc(N=Nc2cccc3ccccc23)c(O)c2ncccc12
T/C [4]: 104 % of control
T/C [5]: 97 % of control
T/C [6]: 106 % of control

COS(=O)(=O)O
T/C [10]: 96 % of control
T/C [11]: 96 % of control

O=P(O)(NCCCl)NCCCl
T/C [12]: 404 % of control
T/C [13]: 488 % of control
T/C (endpoint: median survival time, dose: 25.0 mg/kg/injection, schedule: Q01DX001 (ip), vehicle: saline with Tween-80): 116 % of control
T/C (endpoint: median survival time, dose: 50.0 mg/kg/injection, schedule: Q01DX001 (ip), vehicle: saline with Tween-80): 160 % of control
T/C (endpoint: median survival time, dose: 75.0 mg/kg/injection, schedule: Q01DX001 (ip), vehicle: saline): 356 % of control
T/C (endpoint: median survival time, dose: 100.0 mg/kg/injection, schedule: Q01DX001 (ip), vehicle: saline with Tween-80): 160 % of control and 185 % of control
T/C (endpoint: median survival time, dose: 100.0 mg/kg/injection, schedule: Q01DX001 (ip), vehicle: saline): 232 % of control and 410 % of control
T/C (endpoint: median survival time, dose: 100.0 mg/kg/injection, schedule: Q01DX001 (iv), vehicle: saline): 219 % of control
T/C (endpoint: median survival time, dose: 125.0 mg/kg/injection, schedule: Q01DX001 (ip), vehicle: saline): 202 % of control
T/C (endpoint: median survival time, dose: 150.0 mg/kg/injection, schedule: Q01DX001 (ip), vehicle: saline): 205 % of control
T/C (endpoint: median survival time, dose: 150.0 mg/kg/injection, schedule: Q01DX001 (iv), vehicle: saline): 86 % of control
T/C (endpoint: median survival time, dose: 200.0 mg/kg/injection, schedule: Q01DX001 (ip), vehicle: saline with Tween-80): 191 % of control

CCCCCCCCCC(=O)NC(=S)Nc1cccc(C(C)=O)c1
T/C [7]: 89 % of control
T/C [1]: 87 % of control and 95 % of control
T/C (endpoint: mean survival time, dose: 100.0 mg/kg/injection, schedule: Q04DX002 (ip), vehicle: saline with Tween-80): 88 % of control and 104 % of control
T/C [4]: 93 % of control
T/C [8]: 88 % of control
T/C [2]: 91 % of control and 109 % of control
T/C (endpoint: mean survival time, dose: 200.0 mg/kg/injection, schedule: Q04DX002 (ip), vehicle: saline with Tween-80): 92 % of control and 96 % of control
T/C [5]: 91 % of control
T/C [3]: 95 % of control
T/C (endpoint: mean survival time, dose: 400.0 mg/kg/injection, schedule: Q04DX002 (ip), vehicle: saline with Tween-80): 88 % of control and 90 % of control
T/C [6]: 95 % of control

COC1OC(CCl)C(Cl)C(Cl)C1O (stereo unspecified)
T/C [7]: 102 % of control
T/C [8]: 96 % of control
T/C [9]: 102 % of control

O=C1C(=O)c2ccccc2C(O)=C1CCCc1ccc(OCc2ccccc2)cc1
T/C [10]: 86 % of control
T/C [11]: 88 % of control

CCOC(=O)C(Cc1ccc(OC)cc1)P(=O)(OCC)OCC (stereo unspecified)
T/C [12]: 106 % of control
T/C [13]: 108 % of control
T/C (endpoint: mean survival time, dose: 400.0 mg/kg/injection, schedule: Q01DX001 (ip), vehicle: saline): 101 % of control

O=S(=O)(O)SCC1=NCCCCN1
T/C [4]: 101 % of control
